Tests used:
[1] = tested on: GLXMAW (Soybean, Williams); experiment: Preemergence herbicidal evaluation; assay type: in vivo, Glycine max, (L.) Merr. cv Williams; details: rated 4-5 weeks after treatment
In short: (§1)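 Greenhouse preemergence test: seed-soil mix sown on ~1 inch soil; aqueous acetone spray at equivalent of ~0.0156–0.500 kg/ha; greenhouse-held and watered; scored 0–9 visually at 4–5 weeks.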

[2] = tested on: IPOHE (Morningglory, Ivyleaf); experiment: Postemergence herbicidal evaluation; assay type: in vivo, Ipomoea hederacea; details: postemergence
In short: (§2)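 Seedlings grown about two weeks were sprayed at 40 psi with compound dispersed in 50/50 acetone/water plus 0.5% TWEEN 20, at about 0.0156 to 0.500 kg/ha. Plants were kept in the greenhouse and scored 4–5 weeks later on a 0–9 visual scale against untreated controls.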

[3] = tested on: ECHORC (Watergrass (Calif.)); experiment: Postemergence weed control under flooded paddy conditions; assay type: in vivo, Echinochloa oryzoides; details: postemergence weeds, rated 3 to 4 weeks after treatment
In short: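 With weeds 3 to 5 cm tall and rice at the 1.5 to 2.5 leaf stage, containers were flooded and water held 1.5 to 3 cm above soil. Compounds in 50/50 v/v aqueous/acetone went into the flood water at about 0.0313 to 0.500 kg/ha a.i. Effects were visually rated 0–9 against controls after three to four weeks in the greenhouse.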

CYPSE (Flatsedge) = experiment: Preemergence weed control under flooded paddy conditions; assay type: in vivo, Cyperus serotinus; details: rated 3-4 weeks after treatment
In short: (§3)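 Ratings on a 0-9 visual scale cover stand, vigor, malformation, size, chlorosis and overall appearance relative to a control, taken three to four weeks post-treatment. Application was into flood water over freshly sown silt loam at roughly 0.0313 to 0.500 kg/ha.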

[4] = tested on: SAGPY (Arrowhead (Pygmaea)); experiment: as above; assay type: in vivo, Sagittaria pygmaea; details: rated 3-4 weeks after treatment
In short: as §3

CASOB (Sicklepod) = experiment: Preemergence herbicidal evaluation; assay type: in vivo, Cassia obtusifolia; details: rated 4-5 weeks after treatment
In short: as §1

GALAP (Galium) = experiment: Preemergence herbicidal evaluation; assay type: in vivo, Galium aparine; details: rated 4-5 weeks after treatment
In short: as §1

[5] = tested on: GLXMAW (Soybean, Williams); experiment: Postemergence herbicidal evaluation; assay type: in vivo, Glycine max, (L.) Merr. cv Williams; details: postemergence
In short: as §2

ECHCG (Barnyardgrass) = experiment: Preemergence herbicidal evaluation; assay type: in vivo, Echinochloa crus-galli; details: rated 4-5 weeks after treatment
In short: as §1

AMBEL (Ragweed, Common) [6] = experiment: Postemergence herbicidal evaluation; assay type: in vivo, Ambrosia artemisifolia; details: postemergence
In short: as §2

AMBEL (Ragweed, Common) [7] = experiment: Preemergence herbicidal evaluation; assay type: in vivo, Ambrosia artemisifolia; details: rated 4-5 weeks after treatment
In short: as §1

ZEAMX (Corn, Field) = experiment: Postemergence herbicidal evaluation; assay type: in vivo, Zea mays; details: postemergence
In short: as §2

ABUTH (Velvetleaf) = experiment: Preemergence herbicidal evaluation; assay type: in vivo, Abutilon theophrasti; details: rated 4-5 weeks after treatment
In short: as §1

SETVI (Foxtail, Green) = experiment: Preemergence herbicidal evaluation; assay type: in vivo, Setaria viridis; details: rated 4-5 weeks after treatment
In short: as §1

COC(=O)C(Cc1ccc(Cl)cc1)N1C(=O)CSC1=Nc1cc(-n2c(=O)cc(C(F)(F)F)n(C)c2=O)c(F)cc1Cl (racemic) [Compound 77, Methyl α-(p-chlorobenzyl)-2-{{2-chloro-5-[3,6-dihydro-3-methyl-2,6-dioxo-4-(trifluoromethyl)-1(2H)-pyrimidinyl]-4-fluorophenyl}imino}-4-oxo-3-thiazolidineacetate, DL-]
3.5: GLXMAW herbicidal rating ([5]; rate 0.0158 kg/ha) | ZEAMX herbicidal rating (ZEAMX (Corn, Field); rate 0.0315 kg/ha)
0.0: Preemergence herbicidal rating GLXMAW ([1]; rate 0.0156 kg/ha) | Preemergence herbicidal rating GLXMAW ([1]; rate 0.0313 kg/ha) | Preemergence herbicidal rating GLXMAW ([1]; rate 0.0625 kg/ha) | Preemergence herbicidal rating GLXMAW ([1]; rate 0.1250 kg/ha) | CYPSE herbicidal effect rating (CYPSE (Flatsedge); 0.0313 kg/ha) | CYPSE herbicidal effect rating (CYPSE (Flatsedge); 0.0625 kg/ha) | CYPSE herbicidal effect rating (CYPSE (Flatsedge); 0.1250 kg/ha) | SAGPY herbicidal effect rating ([4]; 0.0313 kg/ha) | SAGPY herbicidal effect rating ([4]; 0.0625 kg/ha) | SAGPY herbicidal effect rating ([4]; 0.1250 kg/ha) | SAGPY herbicidal effect rating ([4]; 0.2500 kg/ha) | Preemergence herbicidal rating CASOB (CASOB (Sicklepod); rate 0.0156 kg/ha) | Preemergence herbicidal rating CASOB (CASOB (Sicklepod); rate 0.0313 kg/ha) | Preemergence herbicidal rating CASOB (CASOB (Sicklepod); rate 0.0625 kg/ha) | Preemergence herbicidal rating CASOB (CASOB (Sicklepod); rate 0.1250 kg/ha) | Preemergence herbicidal rating CASOB (CASOB (Sicklepod); rate 0.2500 kg/ha) | Preemergence herbicidal rating GALAP (GALAP (Galium); rate 0.0156 kg/ha) | Preemergence herbicidal rating GALAP (GALAP (Galium); rate 0.0313 kg/ha) | Preemergence herbicidal rating GALAP (GALAP (Galium); rate 0.0625 kg/ha) | Preemergence herbicidal rating ECHCG (ECHCG (Barnyardgrass); rate 0.0156 kg/ha) | Preemergence herbicidal rating ECHCG (ECHCG (Barnyardgrass); rate 0.0313 kg/ha) | Preemergence herbicidal rating ECHCG (ECHCG (Barnyardgrass); rate 0.0625 kg/ha) | Preemergence herbicidal rating ECHCG (ECHCG (Barnyardgrass); rate 0.1250 kg/ha) | Preemergence herbicidal rating ECHCG (ECHCG (Barnyardgrass); rate 0.2500 kg/ha) | Preemergence herbicidal rating AMBEL (AMBEL (Ragweed, Common) [7]; rate 0.0156 kg/ha) | Preemergence herbicidal rating ABUTH (ABUTH (Velvetleaf); rate 0.0313 kg/ha) | Preemergence herbicidal rating SETVI (SETVI (Foxtail, Green); rate 0.0156 kg/ha) | Preemergence herbicidal rating SETVI (SETVI (Foxtail, Green); rate 0.0313 kg/ha) | Preemergence herbicidal rating SETVI (SETVI (Foxtail, Green); rate 0.0625 kg/ha) | Preemergence herbicidal rating SETVI (SETVI (Foxtail, Green); rate 0.1250 kg/ha)
9.0: IPOHE herbicidal rating ([2]; rate 0.0158 kg/ha) | IPOHE herbicidal rating ([2]; rate 0.0315 kg/ha) | IPOHE herbicidal rating ([2]; rate 0.0630 kg/ha) | Herbicidal rating ECHORC ([3]; Rate 0.0313 kg/ha) | Herbicidal rating ECHORC ([3]; Rate 0.0625 kg/ha) | Herbicidal rating ECHORC ([3]; Rate 0.1250 kg/ha) | Herbicidal rating ECHORC ([3]; Rate 0.2500 kg/ha) | AMBEL herbicidal rating (AMBEL (Ragweed, Common) [6]; rate 0.0158 kg/ha) | AMBEL herbicidal rating (AMBEL (Ragweed, Common) [6]; rate 0.0315 kg/ha) | AMBEL herbicidal rating (AMBEL (Ragweed, Common) [6]; rate 0.0630 kg/ha) | Preemergence herbicidal rating ABUTH (ABUTH (Velvetleaf); rate 0.0625 kg/ha) | Preemergence herbicidal rating ABUTH (ABUTH (Velvetleaf); rate 0.1250 kg/ha) | Preemergence herbicidal rating ABUTH (ABUTH (Velvetleaf); rate 0.2500 kg/ha) | Preemergence herbicidal rating SETVI (SETVI (Foxtail, Green); rate 0.2500 kg/ha)
2.0: Preemergence herbicidal rating AMBEL (AMBEL (Ragweed, Common) [7]; rate 0.0313 kg/ha) | Preemergence herbicidal rating AMBEL (AMBEL (Ragweed, Common) [7]; rate 0.1250 kg/ha)
4.5: ZEAMX herbicidal rating (ZEAMX (Corn, Field); rate 0.0630 kg/ha)
7.0: Preemergence herbicidal rating AMBEL (AMBEL (Ragweed, Common) [7]; rate 0.2500 kg/ha)
4.0: CYPSE herbicidal effect rating (CYPSE (Flatsedge); 0.2500 kg/ha) | ZEAMX herbicidal rating (ZEAMX (Corn, Field); rate 0.0158 kg/ha)
5.0: GLXMAW herbicidal rating ([5]; rate 0.0315 kg/ha) | GLXMAW herbicidal rating ([5]; rate 0.0630 kg/ha)
1.0: Preemergence herbicidal rating GLXMAW ([1]; rate 0.2500 kg/ha) | Preemergence herbicidal rating GALAP (GALAP (Galium); rate 0.1250 kg/ha) | Preemergence herbicidal rating GALAP (GALAP (Galium); rate 0.2500 kg/ha) | Preemergence herbicidal rating AMBEL (AMBEL (Ragweed, Common) [7]; rate 0.0625 kg/ha) | Preemergence herbicidal rating ABUTH (ABUTH (Velvetleaf); rate 0.0156 kg/ha)

— patent publication US20020137929A1, “1 - (3-heterocyclylphenyl) isothiourea, -isourea, -guanidine and -amidine herbicidal agents” (Intellectual Property Department, BASF Aktiengesellschaft, priority 1998, published 2002)
